# Starred links: 1 amine or outer side, 2 acyl side, 3 side chain; linkers in the order of their positions; H or OH if unused. Positions of bridges follow the written chain, without caps; N, C: chain ends. Non-standard residues stand in square brackets, D forms with d. Residues, ends and D or L forms follow the SMILES beside them. *: point of attachment. Ala(piperidin-4-yl) = O=C([C@H](CC1CCN([*:3])CC1)N[*:1])[*:2]; Ala(1-amidino-4-piperidyl) = N=C(N)N1CCC(C[C@H](N)C(=O)O)CC1; Phe(4-guanidino) = N=C(N)Nc1ccc(C[C@H](N)C(=O)O)cc1; X9 = COc1ccc(Cn2cnc(C[C@H](N[*:1])C(=O)[*:2])c2)cc1; Phe(4-amidino) = N=C(N)c1ccc(C[C@H](N)C(=O)O)cc1; X6 = O=C([C@H](C[S+]([O-])Cc1cccnc1)N[*:1])[*:2]; Phe(3,4-Cl2) = N[C@@H](Cc1ccc(Cl)c(Cl)c1)C(=O)O; Phe(3-Cl) = N[C@@H](Cc1cccc(Cl)c1)C(=O)O; Phe(2-Cl) = N[C@@H](Cc1ccccc1Cl)C(=O)O; Phe(4-F) = N[C@@H](Cc1ccc(F)cc1)C(=O)O; Bta = N[C@@H](Cc1csc2ccccc12)C(=O)O; Hyp = O=C(O)[C@@H]1C[C@@H](O)CN1; PhLac = O=C(O)[C@@H](O)Cc1ccccc1; d(hLeu) = CC(C)CC[C@@H](N)C(=O)O; hCit = NC(=O)NCCCC[C@H](N)C(=O)O; 4Pal = N[C@@H](Cc1ccncc1)C(=O)O; Cit = NC(=O)NCCC[C@H](N)C(=O)O; dCha = N[C@H](CC1CCCCC1)C(=O)O; NMeA = CN[C@@H](C)C(=O)O; Nle = CCCC[C@H](N)C(=O)O; Orn = NCCC[C@H](N)C(=O)O; Dab = NCC[C@H](N)C(=O)O; X17 = c1cc(CC*)ccn1; X16 = c1ccc(C*)nc1; X18 = c1cc(C*)ccn1; X22 = c1cncc(C*)c1
# Target: T1, human C5aR(CD88) (Homo sapiens, UniProt P21730)
# T1 construct: expressed in transfected cells; host or cells: rat basophilic leukemia cells (RBL)
# T1 sequence (P21730 1-350): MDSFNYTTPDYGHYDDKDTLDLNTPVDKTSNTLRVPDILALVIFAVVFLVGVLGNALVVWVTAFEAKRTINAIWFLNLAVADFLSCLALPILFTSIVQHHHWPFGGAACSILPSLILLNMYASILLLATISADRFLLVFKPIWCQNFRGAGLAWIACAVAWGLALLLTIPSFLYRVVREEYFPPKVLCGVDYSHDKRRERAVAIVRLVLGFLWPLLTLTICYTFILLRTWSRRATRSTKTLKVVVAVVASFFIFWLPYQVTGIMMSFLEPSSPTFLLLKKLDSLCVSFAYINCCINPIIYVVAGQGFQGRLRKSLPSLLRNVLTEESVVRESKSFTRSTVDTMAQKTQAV
# Assay: Determination of the IC50 value in an enzyme release assay (functional assay, antagonistic activity)
# Format: cell-based
# Conditions: antagonistic activity; IC50 group in enzyme release assay, RBL cells expressing human C5aR(CD88); read-out: activity (group)
row,SMILES,IC50
1,"CC(C)CC[C@H]1NC(=O)[C@@H]2CCCN2C(=O)[C@@H](NC(=O)[C@@H](N)Cc2ccccc2)CCCNC(=O)[C@H](Cc2ccccc2)NC(=O)[C@H](Cc2ccc(F)cc2)NC1=O [Compound 380, H-Phe-[Orn-Pro-hle-Pff-Phe]] (H-F[Orn]P[d(hLeu)][Phe(4-F)]F; lactam 2-C)",0.02 to 0.05 µM
2,"CCCC[C@@H]1NC(=O)[C@H](Cc2c[nH]c3ccccc23)NC(=O)[C@@H](CCC(C)C)NC(=O)[C@@H]2CCCN2C(=O)[C@@H](NC(=O)[C@@H](N)Cc2ccccc2)CCCNC1=O [Compound 381, H-Phe-[Orn-Pro-hle-Trp-Nle]] (H-F[Orn]P[d(hLeu)]W[Nle]; lactam 2-C)",0.02 to 0.05 µM
3,"CCCC[C@@H]1NC(=O)[C@H](Cc2c[nH]c3ccccc23)NC(=O)[C@@H](CC2CCCCC2)NC(=O)[C@H](CO)NC(=O)[C@@H](NC(=O)[C@@H](N)Cc2ccccc2)CCCNC1=O [Compound 382, H-Phe-[Orn-Ser-cha-Trp-Nle]] (H-F[Orn]S[dCha]W[Nle]; lactam 2-C)",0.02 to 0.05 µM
4,"N[C@@H](Cc1ccccc1)C(=O)N[C@H]1CCCNC(=O)[C@H](Cc2ccccc2)NC(=O)[C@H](Cc2c[nH]c3ccccc23)NC(=O)[C@@H](CC2CCCCC2)NC(=O)[C@H](CO)NC1=O [Compound 383, H-Phe-[Orn-Ser-cha-Trp-Phe]] (H-F[Orn]S[dCha]WF; lactam 2-C)",0.02 to 0.05 µM
5,"CCCC[C@@H]1NC(=O)[C@H](Cc2ccc(Cl)c(Cl)c2)NC(=O)[C@@H](CCC(C)C)NC(=O)[C@H](CO)NC(=O)[C@@H](NC(=O)[C@@H](N)Cc2ccccc2)CCCNC1=O [Compound 384, H-Phe-[Orn-Ser-hle-Eaa-Nle]] (H-F[Orn]S[d(hLeu)][Phe(3,4-Cl2)][Nle]; lactam 2-C)",0.05 to 0.2 µM
6,"CC(C)CC[C@H]1NC(=O)[C@H](CO)NC(=O)[C@@H](NC(=O)[C@@H](N)Cc2ccccc2)CCCNC(=O)[C@H](CC(C)C)NC(=O)[C@H](Cc2cccc(Cl)c2)NC1=O [Compound 385, H-Phe-[Orn-Ser-hle-Mcf-Leu]] (H-F[Orn]S[d(hLeu)][Phe(3-Cl)]L; lactam 2-C)",0.05 to 0.2 µM
7,"CCCC[C@@H]1NC(=O)[C@H](Cc2ccccc2Cl)NC(=O)[C@@H](CCC(C)C)NC(=O)[C@H](CO)NC(=O)[C@@H](NC(=O)[C@@H](N)Cc2ccccc2)CCCNC1=O [Compound 386, H-Phe-[Orn-Ser-hle-Ocf-Nle]] (H-F[Orn]S[d(hLeu)][Phe(2-Cl)][Nle]; lactam 2-C)",0.05 to 0.2 µM
8,"CC(C)CC[C@H]1NC(=O)[C@H](CO)NC(=O)[C@@H](NC(=O)[C@@H](N)Cc2ccccc2)CCCNC(=O)[C@H](CC(C)C)NC(=O)[C@H](Cc2ccc(F)cc2)NC1=O [Compound 387, H-Phe-[Orn-Ser-hle-Pff-Leu]] (H-F[Orn]S[d(hLeu)][Phe(4-F)]L; lactam 2-C)",0.05 to 0.2 µM
9,"CCCC[C@@H]1NC(=O)[C@H](Cc2ccc(F)cc2)NC(=O)[C@@H](CCC(C)C)NC(=O)[C@H](CO)NC(=O)[C@@H](NC(=O)[C@@H](N)Cc2ccccc2)CCCNC1=O [Compound 388, H-Phe-[Orn-Ser-hle-Pff-Nle]] (H-F[Orn]S[d(hLeu)][Phe(4-F)][Nle]; lactam 2-C)",0.02 to 0.05 µM
10,"CC(C)CC[C@H]1NC(=O)[C@H](CO)NC(=O)[C@@H](NC(=O)[C@@H](N)Cc2ccccc2)CCCNC(=O)[C@H](Cc2ccccc2)NC(=O)[C@H](Cc2ccc(F)cc2)NC1=O [Compound 389, H-Phe-[Orn-Ser-hle-Pff-Phe]] (H-F[Orn]S[d(hLeu)][Phe(4-F)]F; lactam 2-C)",0.05 to 0.2 µM
11,"CCCC[C@@H]1NC(=O)[C@H](Cc2c[nH]c3ccccc23)NC(=O)[C@@H](CCC(C)C)NC(=O)[C@H](CO)NC(=O)[C@@H](NC(=O)[C@@H](N)Cc2ccccc2)CCCNC1=O [Compound 390, H-Phe-[Orn-Ser-hle-Trp-Nle]] (H-F[Orn]S[d(hLeu)]W[Nle]; lactam 2-C)",0.02 to 0.05 µM
12,"CC(C)CC[C@@H](NC(=O)[C@@H]1CCCN1C(=O)[C@H](CCCNC(N)=O)NC(=O)[C@@H](N)Cc1ccccc1)C(=O)N[C@@H](Cc1csc2ccccc12)C(=O)N[C@@H](Cc1ccccc1)C(N)=O [Compound 391, H-Phe-Cit-Pro-hle-Bta-Phe-NH2] (H-F[Cit]P[d(hLeu)][Bta]F-NH2)",0.05 to 0.2 µM
13,"CCCC[C@@H]1NC(=O)[C@H](Cc2c[nH]c3ccccc23)NC(=O)[C@@H](CCC(C)C)NC(=O)[C@@H]2C[C@@H](O)CN2C(=O)[C@@H](NC(=O)[C@@H](O)Cc2ccccc2)CCCNC1=O [Compound 392, Ohf-[Orn-Hyp-hle-Trp-Nle]] (H-[PhLac][Orn][Hyp][d(hLeu)]W[Nle]; lactam 2-C)",0.05 to 0.2 µM
14,CC(=O)N[C@@H](Cc1ccccc1)C(=O)N[C@H]1CCCNC(=O)[C@H](CCCCNC(=N)N)NC(=O)[C@H](Cc2c[nH]c3ccccc23)NC(=O)[C@@H](CC2CCCCC2)NC(=O)[C@@H]2CCCN2C1=O [compound 8],0.2 to 2 µM
15,CC(=O)N[C@@H](Cc1ccccc1)C(=O)N[C@H]1CCCNC(=O)[C@H](Cc2ccc(NC(=N)N)cc2)NC(=O)[C@H](Cc2c[nH]c3ccccc23)NC(=O)[C@@H](CC2CCCCC2)NC(=O)[C@@H]2CCCN2C1=O [compound 9] (Ac-F[Orn]P[dCha]W[Phe(4-guanidino)]; lactam 2-C),0.2 to 2 µM
16,CC(=O)N[C@@H](Cc1ccccc1)C(=O)N[C@H]1CCCNC(=O)[C@H](CCC/N=C(/N)N[N+](=O)[O-])NC(=O)[C@H](Cc2c[nH]c3ccccc23)NC(=O)[C@@H](CC2CCCCC2)NC(=O)[C@@H]2CCCN2C1=O [compound 11],0.2 to 2 µM
17,CC(=O)N[C@@H](Cc1ccccc1)C(=O)N[C@H]1CCCNC(=O)[C@H](CCCCNC(N)=O)NC(=O)[C@H](Cc2c[nH]c3ccccc23)NC(=O)[C@@H](CC2CCCCC2)NC(=O)[C@@H]2CCCN2C1=O [compound 13] (Ac-F[Orn]P[dCha]W[hCit]; lactam 2-C),0.2 to 2 µM
18,CC(=O)N[C@@H](Cc1ccccc1)C(=O)N[C@H]1CCCNC(=O)[C@H](CSCc2ccncc2)NC(=O)[C@H](Cc2c[nH]c3ccccc23)NC(=O)[C@@H](CC2CCCCC2)NC(=O)[C@@H]2CCCN2C1=O [compound 15] (Ac-F[Orn]P[dCha]WC(X18); lactam 2-C),0.2 to 2 µM
19,CC(=O)N[C@@H](Cc1ccccc1)C(=O)N[C@H]1CCCNC(=O)[C@H](C[S+]([O-])Cc2cccnc2)NC(=O)[C@H](Cc2c[nH]c3ccccc23)NC(=O)[C@@H](CC2CCCCC2)NC(=O)[C@@H]2CCCN2C1=O (some centres unmarked) [compound 16] (Ac-F[Orn]P[dCha]W[X6]; lactam 2-C),0.2 to 2 µM
20,CC(=O)N[C@@H](Cc1ccccc1)C(=O)N[C@H]1CCCNC(=O)[C@H](CSCc2cccnc2)NC(=O)[C@H](Cc2c[nH]c3ccccc23)NC(=O)[C@@H](CC2CCCCC2)NC(=O)[C@@H]2CCCN2C1=O [compound 17] (Ac-F[Orn]P[dCha]WC(X22); lactam 2-C),0.2 to 2 µM
21,CC(=O)N[C@@H](Cc1ccccc1)C(=O)N[C@H]1CCCNC(=O)[C@H](CSCc2ccccn2)NC(=O)[C@H](Cc2c[nH]c3ccccc23)NC(=O)[C@@H](CC2CCCCC2)NC(=O)[C@@H]2CCCN2C1=O [compound 18] (Ac-F[Orn]P[dCha]WC(X16); lactam 2-C),0.2 to 2 µM
22,CC(=O)N[C@@H](Cc1ccccc1)C(=O)N[C@H]1CCCNC(=O)[C@H](CSCCc2ccncc2)NC(=O)[C@H](Cc2c[nH]c3ccccc23)NC(=O)[C@@H](CC2CCCCC2)NC(=O)[C@@H]2CCCN2C1=O [compound 19] (Ac-F[Orn]P[dCha]WC(X17); lactam 2-C),0.2 to 2 µM
23,CC(=O)N[C@@H](Cc1ccccc1)C(=O)N[C@H]1CCCNC(=O)[C@H](Cc2ccc(C(=N)N)cc2)NC(=O)[C@H](Cc2c[nH]c3ccccc23)NC(=O)[C@@H](CC2CCCCC2)NC(=O)[C@@H]2CCCN2C1=O [compound 21] (Ac-F[Orn]P[dCha]W[Phe(4-amidino)]; lactam 2-C),0.2 to 2 µM
24,CC(=O)N[C@@H](Cc1ccccc1)C(=O)N[C@H]1CCCNC(=O)[C@H](Cc2ccncc2)NC(=O)[C@H](Cc2c[nH]c3ccccc23)NC(=O)[C@@H](CC2CCCCC2)NC(=O)[C@@H]2CCCN2C1=O [compound 23] (Ac-F[Orn]P[dCha]W[4Pal]; lactam 2-C),0.05 to 0.2 µM
25,CC(=O)N[C@@H](Cc1ccccc1)C(=O)N[C@H]1CCCNC(=O)[C@H](CCN)NC(=O)[C@H](Cc2c[nH]c3ccccc23)NC(=O)[C@@H](CC2CCCCC2)NC(=O)[C@@H]2CCCN2C1=O [compound 25] (Ac-F[Orn]P[dCha]W[Dab]; lactam 2-C),0.05 to 0.2 µM
26,COc1ccc(Cn2cnc(C[C@@H]3NC(=O)[C@H](Cc4c[nH]c5ccccc45)NC(=O)[C@@H](CC4CCCCC4)NC(=O)[C@@H]4CCCN4C(=O)[C@@H](NC(=O)[C@H](Cc4ccccc4)NC(C)=O)CCCNC3=O)c2)cc1 [compound 26] (Ac-F[Orn]P[dCha]W[X9]; lactam 2-C),0.2 to 2 µM
27,CC(=O)N[C@@H](Cc1ccccc1)C(=O)N[C@H]1CCCNC(=O)[C@H](CC2CCNCC2)NC(=O)[C@H](Cc2c[nH]c3ccccc23)NC(=O)[C@@H](CC2CCCCC2)NC(=O)[C@@H]2CCCN2C1=O [compound 27] (Ac-F[Orn]P[dCha]W[Ala(piperidin-4-yl)]; lactam 2-C),> 2 µM
28,CC(=O)N[C@@H](Cc1ccccc1)C(=O)N[C@H]1CCCNC(=O)[C@H](CC2CCN(C(=N)N)CC2)NC(=O)[C@H](Cc2c[nH]c3ccccc23)NC(=O)[C@@H](CC2CCCCC2)NC(=O)[C@@H]2CCCN2C1=O [compound 30] (Ac-F[Orn]P[dCha]W[Ala(1-amidino-4-piperidyl)]; lactam 2-C),> 2 µM
29,CC(=O)N[C@@H](Cc1ccccc1)C(=O)N[C@H]1CCCNC(=O)[C@H](CCCNC(=N)N)NC(=O)[C@H](Cc2c[nH]c3ccccc23)NC(=O)[C@@H](CC2CCCCC2)NC(=O)[C@H](C)N(C)C1=O [compound 46] (Ac-F[Orn][NMeA][dCha]WR; lactam 2-C),0.02 to 0.05 µM
